# Assay results: patent US8202855B2, “Substituted beta-lactams” (Allergan, Inc, priority 2008, dated 2012)
# Tested on: lashes and adjacent hairs of patients having glaucoma
# Assay: Observation of lashes in glaucoma patients treated in one eye
# Type: in vivo
# Conditions: glaucoma patients treated in only one eye
# Description: In the course of treating patients having glaucoma, treatment may only be appropriate in one eye. […] The lash appearance on the lids of the treated eyes would have appeared quite attractive if it represented a bilateral phenomenon. As a result of its asymmetric nature, the long lashes on one side could be construed as disturbing from a cosmetic standpoint. A systemic examination was preformed as a result of the asymmetric phenomenon. It soon became apparent that this altered appearance was not an isolated finding. […] Definite differences could be identified to varying degrees in the lashes and adjacent hairs of all patients who were taking the drug on a unilateral basis for longer than 6 months.
# The changes in the lashes were apparent on gross inspection in several patients once attention was focused on the issue. In those with light colored hair and lashes, the differences were only seen easily with the aid of the high magnification and lighting capabilities of the slit lamp biomicroscope. In the course of glaucoma follow-up examination, attention is generally immediately focused on the eye itself. As a result of the high power magnification needed only one eye is seen at a time and the eye is seen at a high enough power that the lashes are not in focus. […]
smiles,measurement,value
CCNC(=O)CCC/C=C\C[C@@H]1[C@@H](/C=C/[C@@H](O)CCc2ccccc2)[C@H](O)C[C@@H]1O [bimatoprost],lash appearance in treated eye versus non-treated eye,"longer, thicker, and fuller in the treated eye than in the non-treated eye"
